The record followed here is ChEMBL document CHEMBL1158911, “Isolation and Structure Determination of Inostamycin, a Novel Inhibitor of Phosphatidylinositol Turnover” (J Nat Prod, 1990).

Molecules are shown by their SMILES. Converted amounts (≈) assume the structure as drawn. The source made the active and inactive calls. The calls are words filed in the database; no cut-off is given here.

This experiment deals with A-431. The experiment in a line: Inhibition of EGF-induced [3H]inositol incorporation in to phosphatidylinositol in human A431 cells after 60 mins by liquid scintillation spectrophotometry. It counts as functional, cell-based.

By IC50 is commonly meant the concentration needed to halve the response being measured. High values mean weaker potency in that assay, low ones greater potency in that assay. Regarding `CCC[C@H](O)[C@@]1(CC)C[C@@H](C)[C@](O)([C@]2(C)C[C@H](C)[C@@H]([C@@H](CC)C(=O)[C@@H](C)[C@@H](O)[C@H](C)[C@H]3O[C@@](O)([C@H](CC)C(=O)O)[C@@H](C)[C@H](O)[C@H]3CC)O2)O1` [INOSTAMYCIN], the IC50 is 0.5 µg/mL (≈ 0.713 µM).
Consider `CC[C@@]1([C@@H]2O[C@@H]([C@H]3O[C@@](O)(CO)[C@H](C)C[C@@H]3C)C[C@@H]2C)CC[C@H]([C@]2(C)CC[C@]3(C[C@H](O)[C@@H](C)[C@@H]([C@@H](C)[C@@H](OC)[C@H](C)C(=O)O)O3)O2)O1`, for which the outcome was inactive.
Take `CC[C@@H](C(=O)[C@@H](C)[C@@H](O)[C@@H](C)[C@H]1O[C@@H](CC(=O)OO)[C@H](C)C[C@@H]1C)[C@H]1O[C@](C)([C@]2(O)O[C@](CC)([C@@H](O)CC)C[C@H]2C)C[C@@H]1C`: the outcome was Active.
